Test results from patent publication US7238689B2, “Isoxazoline derivative and herbicide comprising the same as active ingredient” (Ihara Chemical Industry Co., Ltd., priority 2001, dated 2007).

What was measured:
Format in all cases: in vivo
Parameters in all cases: scale not given here
[1] = test system: Echinochloa oryzicola Vasing; test: Herbicidal effect by paddy field soil treatment; details: wettable powder, active ingredient 1000 g/ha, examined at the 21st day from the treatment
Method: (§1) A paddy field soil was filled in a plastic pot of 100 cm^2 and subjected to puddling. Then, seeds of Echinochloa oryzicola Vasing and Monochoria vaginalis (Murm. f.) Presl var. plantaginea (Roxb.) Solms-Laub. were sowed and water was filled in a depth of 3 cm. Next day, wettable powders produced in accordance with the Formulation 1 were diluted with water and dropped on the water surface. The application amount of each wettable powder was 1,000 g per 1 hectare in terms of the active ingredient. Then, breeding was made in a greenhouse, and the herbicidal effect of each wettable powder was examined at the 21st day from the treatment in accordance with the standard shown in Table 21.

[2] = test system: Monochoria vaginalis (Murm. f.) Presl var. plantaginea (Roxb.) Solms-Laub.; test: Herbicidal effect by paddy field soil treatment; details: wettable powder, active ingredient 1000 g/ha, examined at the 21st day from the treatment
Method: as §1

[3] = test system: Echinochloa crus-galli (L.) Beauv. var. crusgalli; test: Herbicidal effect by upland field soil treatment; details: active ingredient 1000 g/ha, examined at 21st day from treatment
Excerpt: (§2) An upland field soil was filled in a plastic pot of 80 cm^2. Seeds of Echinochloa crus-galli (L.) Beauv. var. crusgalli and Setaria viridis (L.) Beauv. were sowed, followed by covering with the same soil. […] Then, breeding was made in a greenhouse, and the herbicidal effect of each wettable powder was examined at the 21st day from the treatment in accordance with the standard shown in Table 21.

[4] = test system: Setaria viridis (L.) Beauv.; test: Herbicidal effect by upland field soil treatment; details: active ingredient 1000 g/ha, examined at 21st day from treatment
Excerpt: as §2

Row | SMILES | Herbicidal effect index, Echinochloa oryzicola Vasing [1] | Herbicidal effect index, Monochoria vaginalis (Burm. F.) Presl var. plantaginea (Roxb.) Solms-Laub. [2] | herbicidal effect (index per standard of Table 21), Echinochloa curs-galli (L.) Beauv. Var. crus-galli [3] | herbicidal effect (index per standard of Table 21), Setaria viridis (L.) Beauv. [4]
1 | Cn1nc(C(F)(F)F)c(CS(=O)(=O)C2=NOC(C)(C)C2)c1OCc1ccccc1 [3-0059] | 5 | 5 | 5 | 5
2 | CCOc1c(CS(=O)(=O)C2=NOC(C)(C)C2)c(C(F)(F)F)nn1-c1ccccc1 [3-0156] | 5 | 5 | 5 | 5
3 | Cn1nc(C(F)(F)F)c(CS(=O)(=O)C2=NOC(C)(C)C2)c1Oc1ccccc1 [3-0060] | 5 | 5 | 5 | 5
4 | Cc1nn(-c2ccccc2)c(CS(=O)(=O)C2=NOC(C)(C)C2)c1OC(F)F [5-0006] | 5 | 5 | 5 | 5
5 | CC1(C)CC(S(=O)(=O)Cc2c(Cl)nn(CC#N)c2C(F)(F)F)=NO1 [3-0135] | 5 | 5 | 5 | 5
6 | CCOCn1nc(Cl)c(CS(=O)(=O)C2=NOC(C)(C)C2)c1C(F)(F)F [3-0121] | 5 | 5 | 5 | 5
7 | Cn1c(CS(=O)(=O)C2=NOC(C)(C)C2)c(Cl)c2ccccc21 [10-0018] | 5 | 5 | 5 | 5
8 | Cc1onc(-c2ccccc2)c1CS(=O)(=O)C1=NOC(C)(C)C1 [4-0007] | 5 | 5 | 5 | 5
9 | Cn1nc(C(F)(F)F)c(CS(=O)(=O)C2=NOC(C)(C)C2)c1S(=O)(=O)c1ccccc1 [3-0070] | 5 | 5 | 4 | 4
10 | CSCn1nc(C(F)(F)F)c(CS(=O)(=O)C2=NOC(C)(C)C2)c1Cl [3-0128] | 5 | 5 | 5 | 5
11 | CC1(C)CC(S(=O)(=O)Cc2nn(-c3ccccc3)cc2OC(F)F)=NO1 [6-0003] | 5 | 5 | 5 | 5
12 | CC1(C)CC(S(=O)(=O)Cc2nc3ccccc3o2)=NO1 [10-0009] | 5 | 5 | 5 | 5
13 | Cn1ncc2cccc(CS(=O)(=O)C3=NOC(C)(C)C3)c21 [10-0016] | 5 | 5 | 5 | 4
14 | CC1(C)CC(S(=O)(=O)Cc2c(C(F)(F)F)nn(CC#N)c2Cl)=NO1 [3-0134] | 5 | 5 | 5 | 5
15 | CCOCCn1nc(C(F)(F)F)c(CS(=O)(=O)C2=NOC(C)(C)C2)c1Cl [3-0126] | 5 | 5 | 5 | 5
